Consider one molecule from patent US20200223826A1, “Glucose-6-Phosphate Dehydrogenase (G6PD)-Modulating Agents And Methods Of Treating G6PD Deficiency” (The Board of Trustees of the Leland Stanford Junior …, priority 2017, published 2020).

The target of one assay is T1, A- (V68M, N126D) G6PD (Homo sapiens, UniProt P11413, N126D/V68M).
T1 construct: His (pET-28a) (N, cleaved yes); made in house; host or cells: E. coli C43 (DE3)
Kind of assay: Native gel electrophoresis, dimerization of variant. As for the experimental part:
(§1) 200 ng of recombinant enzymes were incubated with the compound (varying in assays) for 10 minutes at room temperature. To prevent streaking and artifacts in native PAGE gel, the samples in a native state (no boiling of sample and no reducing agent in sample buffer) were electrophoresed by […]. Cross-linking assay was initiated by incubating 500 ng of recombinant enzymes in PBS with 0.1% of glutaraldehyde and different concentrations of NADP^+ (0, 10, 100, 1000 μM) or MgCl2 (0, 1, 10, 100 mM). The mixture was incubated for 10 minutes at room temperature, which was followed by the addition of 100 mM Tris (pH 8.0) at a final concentration to terminate the reaction. The samples were electrophoresed as described above.

In another assay the target is T2, Kaiping (R463H) G6PD (Homo sapiens, UniProt P11413, R463H).
T2 construct: His (pET-28a) (N, cleaved yes); made in house; host or cells: E. coli C43 (DE3)
The description is as above. As for the experimental part:
as §1

Assay [1] addresses T3, Mediterranean (S188F) G6PD (Homo sapiens, UniProt P11413, S188F).
T3 construct: His (pET-28a) (N, cleaved yes); made in house; host or cells: E. coli C43 (DE3)
The assay is described as above. On the procedure: as §1

For another assay, the system named is zebrafish embryos. Briefly: ROS levels in chloroquine-treated zebrafish embryos. The class given is in vivo. Particulars: chloroquine 50 μg/ml. As for the experimental part: Embryos were dechorinated with pronase at 24 hours post fertilization (hpf) and treated with 50 μg/ml of chloroquine and/or AG1 by directly adding the compounds to the well. For ROS measurements, embryos were incubated with compounds for 2 hours, and then the ROS detecting reagent (CM-H2DCFDA) was added at a final concentration of 500 ng/ml to the well for a total treatment time of 5 hours. One embryo was placed to each well of a black, opaque 96-well plate. The florescence was analyzed with excitation/emission at 485/525 nm. After ROS assays, embryos at about 32 hpf were pooled and lysed in buffer containing 50 mM Tris (pH 7.4), 150 mM NaCl, 1 mM EDTA, 0.1% NP-40, and protease inhibitor cocktail, which was followed by three cycles of freeze and thawing in liquid nitrogen. The lysate was centrifuged at 14,000 rpm at 4° C. for 15 minutes. Total protein concentration in the supernatants (total lysate) was determined by Bradford method. 50 μg of total lysate was loaded onto 10% SDS-PAGE gels and the protein level was examined by Western blot using anti-G6PD antibody (Abcam (G6PD: AB87230)). 10 μg of total lysate was used for enzymatic assay. 50 μg of the lysate was used to measure NADPH levels using a NADPH quantification kit (Biovision), according to the manufacturer's instructions.

The target of assay [2] is T4, G6PD in lymphocyte lysates carrying the Canton variant (Homo sapiens, UniProt P11413, R459L).
T4 construct: host or cells: lymphocytes from a G6PD-deficient subject
Briefly: G6PD activity in lymphocyte lysates. Particulars: in the presence of AG1. The class given is cell-based. As for the experimental part:
Lymphocytes derived from a normal subject (HG 00866) and a G6PD-deficient subject carrying Canton variant in G6PD (HG 02367) were purchased from Coriell Institute and cultured in RPMI 1640 supplemented with 15% fetal bovine serum (FBS), 100 U/ml penicillin, and 100 μg/ml streptomycin. An SH-SY5Y neuroblastoma cell line was cultured in Dulbecco's Modification of Eagle's Medium/Ham's F-12 50/50 Mix supplemented with 10% FBS, 100 U/ml penicillin, and 100 μg/ml streptomycin. A G6PD-deficient subject-derived fibroblast cell line carrying Mediterranean variant and normal fibroblast cell line as control were purchased from Coriell Institute (GM 01152) and ThermoFisher Scientific (C0135C), respectively, and cultured in minimum essential medium supplemented with 15% FBS, 100 U/ml penicillin, and 100 μg/ml streptomycin. All the cell lines were maintained at 37° C. in a humidified incubator with an atmosphere of 5% of CO2 and 95% air.
Enzyme activity was measured by monitoring NADPH production, which was coupled with diaphorase converting resazurin to fluorescent resorufin (excitation at 565 nm and emission at 590 nm); fluorescent signal was thus proportional to G6PD activity. Assays were performed at 25° C. and run for 5 minutes in buffer containing 50 mM Tris (pH 7.4), 0.5 mM EDTA, 3.3 mM MgCl2, 1 U/ml diaphorase, 0.1 mM resazurin. […]

The target of a further assay is T5, Canton G6PD (Homo sapiens, UniProt P11413, R459L).
T5 construct: His (pET-28a) (N, cleaved yes); made in house; host or cells: E. coli C43 (DE3)
Briefly: In vitro proteolysis assay with chymotrypsin. Particulars: in the presence of AG1, 25% in its absence. As for the experimental part:
200 ng of recombinant enzymes were incubated with 1 μL of 10 ng/μL chymotrypsin for 1 hour at room temperature. 100 μM of the compound was added to some reaction conditions. The following protein level was examined by Western blot.

T1 sequence (P11413 whole entry V68M/N126D): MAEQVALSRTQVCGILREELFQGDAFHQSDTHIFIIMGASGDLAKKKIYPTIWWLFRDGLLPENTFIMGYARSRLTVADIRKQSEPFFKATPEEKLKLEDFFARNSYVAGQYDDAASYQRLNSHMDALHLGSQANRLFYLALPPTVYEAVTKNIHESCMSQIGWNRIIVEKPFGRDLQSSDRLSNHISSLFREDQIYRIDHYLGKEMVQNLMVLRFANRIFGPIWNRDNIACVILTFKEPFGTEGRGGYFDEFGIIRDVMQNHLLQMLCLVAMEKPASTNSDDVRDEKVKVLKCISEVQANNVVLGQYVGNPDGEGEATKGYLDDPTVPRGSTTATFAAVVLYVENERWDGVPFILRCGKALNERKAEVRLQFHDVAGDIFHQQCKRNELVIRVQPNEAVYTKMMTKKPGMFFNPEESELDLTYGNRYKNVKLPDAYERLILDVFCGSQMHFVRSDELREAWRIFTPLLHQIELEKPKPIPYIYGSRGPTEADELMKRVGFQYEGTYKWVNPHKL
T5 sequence (P11413 whole entry R459L): as the sequence (P11413 whole entry V68M/N126D) above, with M68V, D126N, R459L counted along it
T4 sequence (P11413 2-515 R459L limits assumed): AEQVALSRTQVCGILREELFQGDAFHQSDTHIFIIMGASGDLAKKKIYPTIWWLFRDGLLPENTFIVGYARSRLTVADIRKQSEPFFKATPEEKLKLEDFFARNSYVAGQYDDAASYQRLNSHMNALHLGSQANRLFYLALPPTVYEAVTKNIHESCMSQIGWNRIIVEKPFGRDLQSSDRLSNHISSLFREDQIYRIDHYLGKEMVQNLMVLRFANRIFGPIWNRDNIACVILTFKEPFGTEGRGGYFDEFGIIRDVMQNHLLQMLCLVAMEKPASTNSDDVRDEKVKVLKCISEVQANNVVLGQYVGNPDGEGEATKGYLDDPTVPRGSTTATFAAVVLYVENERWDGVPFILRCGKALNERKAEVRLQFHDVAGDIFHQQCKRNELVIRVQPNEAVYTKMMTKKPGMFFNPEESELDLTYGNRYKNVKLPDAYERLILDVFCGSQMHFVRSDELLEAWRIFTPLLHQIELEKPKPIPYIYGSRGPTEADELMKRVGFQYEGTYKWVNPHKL
T2 sequence (P11413 whole entry R463H): as the sequence (P11413 whole entry V68M/N126D) above, with M68V, D126N, R463H counted along it
T3 sequence (P11413 whole entry S188F): as the sequence (P11413 whole entry V68M/N126D) above, with M68V, D126N, S188F counted along it

Turning to `SCCNCCc1c[nH]c2ccccc12` [AG1, 2-[2-(1H-indol-3-yl)ethylamino]ethanethiol], the dimerization of variant entry at A- (V68M, N126D) G6PD was “promoted their dimerization”; on Kaiping (R463H) G6PD, “promoted their dimerization”; in assay [1], “promoted their dimerization”. In the assay on zebrafish embryos, the ROS levels entry is recorded as “reduced”. The “enhancement of enzymatic activity in lymphocyte lysates” value in assay [2] amounted to 78%. Further, the “protein remaining after proteolysis” value on Canton G6PD is listed as 50%.
